pIC50: −log10 of the molar value.
Legend:
COLO-741 = assay: cells; assay type: functional, cell-based; details: Homo sapiens
Description: SANGER: Inhibition of human COLO-741 cell growth in a cell viability assay.

COLO-792 = assay: cells; assay type: functional, cell-based; details: Homo sapiens
Description: SANGER: Inhibition of human COLO-792 cell growth in a cell viability assay.

CP66-MEL = assay: cells; assay type: functional, cell-based; details: Homo sapiens
Description: SANGER: Inhibition of human CP66-MEL cell growth in a cell viability assay.

Ca-Ski = assay: cells; assay type: functional, cell-based; details: Homo sapiens
Description: SANGER: Inhibition of human Ca-Ski cell growth in a cell viability assay.

Calu-3 = assay: cells; assay type: functional, cell-based; details: Homo sapiens
Description: SANGER: Inhibition of human Calu-3 cell growth in a cell viability assay.

DG-75 = assay: cells; assay type: functional, cell-based, Homo sapiens; details: Homo sapiens, DG-75
Description: SANGER: Inhibition of human DG-75 cell growth in a cell viability assay.

EFM-19 = assay: cells; assay type: functional, cell-based; details: Homo sapiens
Description: SANGER: Inhibition of human EFM-19 cell growth in a cell viability assay.

FaDu = assay: cells; assay type: functional, cell-based; details: Homo sapiens
Description: SANGER: Inhibition of human FADU cell growth in a cell viability assay.

GMS-10 = assay: cells; assay type: functional, cell-based; details: Homo sapiens
Description: SANGER: Inhibition of human GMS-10 cell growth in a cell viability assay.

HCC1954 = assay: cells; assay type: functional, cell-based; details: Homo sapiens
Description: SANGER: Inhibition of human HCC1954 cell growth in a cell viability assay.

HCC70 = assay: cells; assay type: functional, cell-based; details: Homo sapiens
Description: SANGER: Inhibition of human HCC70 cell growth in a cell viability assay.

HOP-92 = assay: cells; assay type: functional, cell-based; details: Homo sapiens
Description: SANGER: Inhibition of human HOP-92 cell growth in a cell viability assay.

HT-29 = assay: cells; assay type: functional, cell-based; details: Homo sapiens
Description: SANGER: Inhibition of human HT-29 cell growth in a cell viability assay.

HuO-3N1 = assay: cells; assay type: functional, cell-based; details: Homo sapiens
Description: SANGER: Inhibition of human HuO-3N1 cell growth in a cell viability assay.

HuP-T3 = assay: cells; assay type: functional, cell-based; details: Homo sapiens
Description: SANGER: Inhibition of human HuP-T3 cell growth in a cell viability assay.

J82 = assay: cells; assay type: functional, cell-based; details: Homo sapiens
Description: SANGER: Inhibition of human J82 cell growth in a cell viability assay.

KMS-12-PE = assay: cells; assay type: functional, cell-based, Homo sapiens; details: Homo sapiens, KMS-12-PE
Description: SANGER: Inhibition of human KMS-12-PE cell growth in a cell viability assay.

KP-4 = assay: cells; assay type: functional, cell-based; details: Homo sapiens
Description: SANGER: Inhibition of human KP-4 cell growth in a cell viability assay.

KYSE-180 = assay: cells; assay type: functional, cell-based; details: Homo sapiens
Description: SANGER: Inhibition of human KYSE-180 cell growth in a cell viability assay.

KYSE-510 = assay: cells; assay type: functional, cell-based; details: Homo sapiens
Description: SANGER: Inhibition of human KYSE-510 cell growth in a cell viability assay.

LB647-SCLC = assay: cells; assay type: functional, cell-based, Homo sapiens; details: Homo sapiens, LB647-SCLC
Description: SANGER: Inhibition of human LB647-SCLC cell growth in a cell viability assay.

LK-2 = assay: cells; assay type: functional, cell-based; details: Homo sapiens
Description: SANGER: Inhibition of human LK-2 cell growth in a cell viability assay.

LoVo = assay: cells; assay type: functional, cell-based; details: Homo sapiens
Description: SANGER: Inhibition of human LoVo cell growth in a cell viability assay.

M14 = assay: cells; assay type: functional, cell-based; details: Homo sapiens
Description: SANGER: Inhibition of human M14 cell growth in a cell viability assay.

MDA-MB-134-VI = assay: cells; assay type: functional, cell-based, Homo sapiens; details: Homo sapiens, MDA-MB-134-VI
Description: SANGER: Inhibition of human MDA-MB-134-VI cell growth in a cell viability assay.

MDA-MB-415 = assay: cells; assay type: functional, cell-based; details: Homo sapiens
MONO-MAC-6 = assay: cells; assay type: functional, cell-based, Homo sapiens; details: Homo sapiens, MONO-MAC-6
Description: SANGER: Inhibition of human MONO-MAC-6 cell growth in a cell viability assay.

NCI-H1703 = assay: cells; assay type: functional, cell-based; details: Homo sapiens
Description: SANGER: Inhibition of human NCI-H1703 cell growth in a cell viability assay.

NCI-H1792 = assay: cells; assay type: functional, cell-based; details: Homo sapiens
Description: SANGER: Inhibition of human NCI-H1792 cell growth in a cell viability assay.

NCI-H1963 = assay: cells; assay type: functional, cell-based, Homo sapiens; details: Homo sapiens, NCI-H1963
Description: SANGER: Inhibition of human NCI-H1963 cell growth in a cell viability assay.

NCI-H2009 = assay: cells; assay type: functional, cell-based; details: Homo sapiens
Description: SANGER: Inhibition of human NCI-H2009 cell growth in a cell viability assay.

NCI-H2030 = assay: cells; assay type: functional, cell-based; details: Homo sapiens
Description: SANGER: Inhibition of human NCI-H2030 cell growth in a cell viability assay.

NCI-H2347 = assay: cells; assay type: functional, cell-based; details: Homo sapiens
Description: SANGER: Inhibition of human NCI-H2347 cell growth in a cell viability assay.

NCI-H2405 = assay: cells; assay type: functional, cell-based; details: Homo sapiens
Description: SANGER: Inhibition of human NCI-H2405 cell growth in a cell viability assay.

NCI-H441 = assay: cells; assay type: functional, cell-based; details: Homo sapiens
Description: SANGER: Inhibition of human NCI-H441 cell growth in a cell viability assay.

OVCAR-3 = assay: cells; assay type: functional, cell-based; details: Homo sapiens
Description: SANGER: Inhibition of human OVCAR-3 cell growth in a cell viability assay.

RL = assay: cells; assay type: functional, cell-based, Homo sapiens; details: Homo sapiens, RL
Description: SANGER: Inhibition of human RL cell growth in a cell viability assay.

RPMI 8402 = assay: SANGER: Inhibition of human RPMI-8402 cell growth in a cell viability assay.; assay type: functional, cell-based; details: Homo sapiens, RPMI 8402
SCC-25 = assay: cells; assay type: functional, cell-based; details: Homo sapiens
Description: SANGER: Inhibition of human SCC-25 cell growth in a cell viability assay.

SCC-3 = assay: cells; assay type: functional, cell-based, Homo sapiens; details: Homo sapiens, SCC-3
Description: SANGER: Inhibition of human SCC-3 cell growth in a cell viability assay.

SIMA = assay: cells; assay type: functional, cell-based, Homo sapiens; details: Homo sapiens, SIMA
Description: SANGER: Inhibition of human SIMA cell growth in a cell viability assay.

SK-HEP1 = assay: cells; assay type: functional, cell-based, SK-HEP-1; details: Homo sapiens
Description: SANGER: Inhibition of human SK-HEP-1 cell growth in a cell viability assay.

SR = assay: cells; assay type: functional, cell-based, Homo sapiens; details: Homo sapiens, SR
Description: SANGER: Inhibition of human SR cell growth in a cell viability assay.

SAOS-2 = assay: cells; assay type: functional, cell-based; details: Homo sapiens
Description: SANGER: Inhibition of human Saos-2 cell growth in a cell viability assay.

T98G = assay: cells; assay type: functional, cell-based; details: Homo sapiens
Description: SANGER: Inhibition of human T98G cell growth in a cell viability assay.

TALL-1 = assay: cells; assay type: functional, cell-based, Homo sapiens; details: Homo sapiens, TALL-1
Description: SANGER: Inhibition of human TALL-1 cell growth in a cell viability assay.

A 172 = assay: cells; assay type: functional, cell-based; details: Homo sapiens
Description: SANGER: Inhibition of human A172 cell growth in a cell viability assay.

A204 = assay: cells; assay type: functional, cell-based; details: Homo sapiens
Description: SANGER: Inhibition of human A204 cell growth in a cell viability assay.

A2058 = assay: cells; assay type: functional, cell-based; details: Homo sapiens
Description: SANGER: Inhibition of human A2058 cell growth in a cell viability assay.

ABC-1 = assay: cells; assay type: functional, cell-based; details: Homo sapiens
Description: SANGER: Inhibition of human ABC-1 cell growth in a cell viability assay.

ACHN = assay: cells; assay type: functional, cell-based; details: Homo sapiens
Description: SANGER: Inhibition of human ACHN cell growth in a cell viability assay.

BOKU = assay: cells; assay type: functional, cell-based; details: Homo sapiens
Description: SANGER: Inhibition of human BOKU cell growth in a cell viability assay.

BXPC-3 = assay: cells; assay type: functional, cell-based; details: Homo sapiens
Description: SANGER: Inhibition of human BxPC-3 cell growth in a cell viability assay.

CAKI-1 = assay: cells; assay type: functional, cell-based; details: Homo sapiens
Description: SANGER: Inhibition of human CAKI-1 cell growth in a cell viability assay.

CAL-51 = assay: cells; assay type: functional, cell-based; details: Homo sapiens
Description: SANGER: Inhibition of human CAL-51 cell growth in a cell viability assay.

UMUC3 = assay: cells; assay type: functional, cell-based; details: Homo sapiens
Description: SANGER: Inhibition of human UM-UC-3 cell growth in a cell viability assay.

YAPC = assay: cells; assay type: functional, cell-based; details: Homo sapiens
Description: SANGER: Inhibition of human YAPC cell growth in a cell viability assay.

CMK = assay: cells; assay type: functional, cell-based, Homo sapiens; details: Homo sapiens, CMK
Description: SANGER: Inhibition of human CMK cell growth in a cell viability assay.

COLO-679 = assay: cells; assay type: functional, cell-based; details: Homo sapiens
Description: SANGER: Inhibition of human COLO-679 cell growth in a cell viability assay.

## C/C(=C\c1csc(C)n1)[C@@H]1C[C@@H]2O[C@]2(C)CCC[C@H](C)[C@H](O)[C@@H](C)C(=O)C(C)(C)[C@@H](O)CC(=O)O1 [PATUPILONE]
COLO-741
  pIC50: 8.57
COLO-792
  pIC50: < 7.49
CP66-MEL
  pIC50: 7.93
Ca-Ski
  pIC50: 8.41
Calu-3
  pIC50: 8.77
DG-75
  pIC50: < 7.49
EFM-19
  pIC50: 7.97
FaDu
  pIC50: 7.58
GMS-10
  pIC50: < 7.49
HCC1954
  pIC50: 8.04
HCC70
  pIC50: 8.32
HOP-92
  pIC50: < 7.49
HT-29
  pIC50: 9.30
HuO-3N1
  pIC50: < 7.49
HuP-T3
  pIC50: 8.42
J82
  pIC50: 8.85
KMS-12-PE
  pIC50: < 7.49
KP-4
  pIC50: 9.17
KYSE-180
  pIC50: 9.22
KYSE-510
  pIC50: 10.13
LB647-SCLC
  pIC50: 8.51
LK-2
  pIC50: 8.31
LoVo
  pIC50: 8.73
M14
  pIC50: < 7.49
MDA-MB-134-VI
  pIC50: < 7.49
MDA-MB-415
  pIC50: 7.70
MONO-MAC-6
  pIC50: 7.76
NCI-H1703
  pIC50: 8.11
NCI-H1792
  pIC50: 8.08
NCI-H1963
  pIC50: 7.92
NCI-H2009
  pIC50: 9.06
NCI-H2030
  pIC50: 9.16
NCI-H2347
  pIC50: < 7.49
NCI-H2405
  pIC50: 7.90
NCI-H441
  pIC50: 8.60
OVCAR-3
  pIC50: 8.38
RL
  pIC50: < 7.49
RPMI 8402
  pIC50: 8.35
SCC-25
  pIC50: 8.91
SCC-3
  pIC50: < 7.49
SIMA
  pIC50: 7.72
SK-HEP1
  pIC50: 8.95
SR
  pIC50: 8.44
SAOS-2
  pIC50: < 7.49
T98G
  pIC50: 7.70
TALL-1
  pIC50: < 7.49
A 172
  pIC50: 8.72
A204
  pIC50: 8.51
A2058
  pIC50: 9.22
ABC-1
  pIC50: 8.78
ACHN
  pIC50: 9.13
BOKU
  pIC50: < 7.49
BXPC-3
  pIC50: 8.76
CAKI-1
  pIC50: 7.76
CAL-51
  pIC50: 8.78
UMUC3
  pIC50: 8.73
YAPC
  pIC50: < 7.49
CMK
  pIC50: 8.88
COLO-679
  pIC50: 9.40

## Cc1ccc(C(=O)Nc2ccc(CN3CCN(C)CC3)c(C(F)(F)F)c2)cc1C#Cc1cnc2cccnn12 [PONATINIB]
COLO-741
  pIC50: < 6.29
COLO-792
  pIC50: < 6.29
CP66-MEL
  pIC50: < 6.29
Ca-Ski
  pIC50: < 6.29
Calu-3
  pIC50: < 6.29
DG-75
  pIC50: < 6.29
EFM-19
  pIC50: < 6.29
FaDu
  pIC50: < 6.29
GMS-10
  pIC50: < 6.29
HCC1954
  pIC50: < 6.29
HCC70
  pIC50: < 6.29
HOP-92
  pIC50: < 6.29
HT-29
  pIC50: < 6.29
HuO-3N1
  pIC50: < 6.29
HuP-T3
  pIC50: < 6.29
J82
  pIC50: < 6.29
KMS-12-PE
  pIC50: < 6.29
KP-4
  pIC50: < 6.29
KYSE-180
  pIC50: 6.57
KYSE-510
  pIC50: < 6.29
LB647-SCLC
  pIC50: < 6.29
LK-2
  pIC50: < 6.29
LoVo
  pIC50: < 6.29
M14
  pIC50: < 6.29
MDA-MB-134-VI
  pIC50: < 6.29
MDA-MB-415
  pIC50: < 6.29
MONO-MAC-6
  pIC50: 8.08
NCI-H1703
  pIC50: 6.71
NCI-H1792
  pIC50: < 6.29
NCI-H1963
  pIC50: < 6.29
NCI-H2009
  pIC50: < 6.29
NCI-H2030
  pIC50: 6.51
NCI-H2347
  pIC50: < 6.29
NCI-H2405
  pIC50: < 6.29
NCI-H441
  pIC50: < 6.29
OVCAR-3
  pIC50: < 6.29
RL
  pIC50: < 6.29
RPMI 8402
  pIC50: < 6.29
SCC-25
  pIC50: < 6.29
SCC-3
  pIC50: < 6.29
SIMA
  pIC50: < 6.29
SK-HEP1
  pIC50: 6.48
SR
  pIC50: < 6.29
SAOS-2
  pIC50: < 6.29
T98G
  pIC50: 6.71
TALL-1
  pIC50: < 6.29
A 172
  pIC50: 6.53
A204
  pIC50: 7.91
A2058
  pIC50: < 6.29
ABC-1
  pIC50: < 6.29
ACHN
  pIC50: 6.53
BOKU
  pIC50: < 6.29
BXPC-3
  pIC50: 6.46
CAKI-1
  pIC50: 6.66
CAL-51
  pIC50: < 6.29
UMUC3
  pIC50: < 6.29
YAPC
  pIC50: < 6.29
CMK
  pIC50: < 6.29
COLO-679
  pIC50: < 6.29

Reference: ChEMBL document CHEMBL1201861, “Genomics of Drug Sensitity in Cancer screening data, Wellcome Trust Sanger Institute”
